# How the values were obtained:
# [1] = tested on: Escherichia coli ATCC25922; design: method as in PMID 36308277, PMID 38093695; conditions: cited from earlier work
# [2] = tested on: Pseudomonas aeruginosa PAO1; design: method as in PMID 36308277, PMID 38093695; conditions: cited from earlier work
# [3] = tested on: Acinetobacter baumannii DSM30008; design: method as in PMID 36308277, PMID 38093695; conditions: cited from earlier work
# [4] = tested on: Acinetobacter baumannii ATCC17978; assay: microbe, parasite or virus in culture; type: cell-based
# Description: (§1) MIC90 determination was performed
# (§2) MIC against Clinical Isolates of E. coli.
# (§3) Zebrafish Infection Model
# (§4) carbenicillin (Carl Roth, Karlsruhe, Germany).3
# (§5) Minimum inhibitory concentrations
# [5] = tested on: Acinetobacter baumannii ATCC17978; assay: Zebrafish embryo model of A. baumannii infection; conditions: 10 mg/kg, caudal vein microinjection 3 hpi
# [6] = tested on: Escherichia coli clinical isolates; assay: MIC against clinical isolates of E. coli (Statens Serum Institut, CLSI); type: cell-based
# Description: as §1, §2, §3, §4, §5
# Escherichia coli C175-94 = assay: Murine urinary tract infection model; type: in vivo, C3H/HeNHsd mice; conditions: positive control, BID, day 4
# Description: One IV dosing arm at 5 mg/kg was included for comparison. Mice were treated for 3 days post-inoculation, and the bacterial burden was determined on day 4.
# In vivo urinary tract infection model. The murine urinary tract infection model was conducted at Statens Serum Institut in Copenhagen, Denmark under the supervision of the Danish Animal Ethical […]
# Bacterial challenge organism: The challenge organism was Escherichia coli C175-94 (serotype O8:K48:H4), a clinical isolate elaborating type 1 fimbriae, previously used for developing and validating the urinary tract infecti on model.7
# Animals: Upon arrival to Statens Serum Institut animal facility, female C3H/HeNHsd mice 5 -6 weeks old (Envigo, Netherlands), were randomized to 8 mice per cage and acclimatized 1 week before experimental start. Bedding was from Tapvei and Enviro -Dri nesting material and cardboard houses (Bio-serv) was offered as enrichment. Mice had free access to domestic quality drinking water and food […]
# Mice were monitored twice daily for clinical symptoms of infection or discomfort and euthanized if reaching humane endpoints specified in the ethical permission […]
# Dickinson, cat. […] Colony counts of urine were determined immediately. […]
# OD540nm of the supernatant was measured and the hemolytic % was calculated following the formula: (OD test compound – OD blank)-(OD positive
"MIC ([6]; ATCC25922, E. coli ATCC25922) [µg/mL]",MIC ([6]; E. coli 50639799) [µg/mL],MIC ([6]; E. coli C175-94) [µg/mL],MIC ([6]; E. coli DSA443) [µg/mL],MIC ([6]; E. coli EC 106-09 (ESBL)) [µg/mL],SMILES,MIC E. coli [1] [µg/mL],MIC P. aeruginosa [2] [µg/mL],MIC A. baumannii [3] [µg/mL],"MIC ([4]; ATCC17978, GFP-tagged A. baumannii ATCC17978) [µg/mL]","MIC ([4]; ATCC17978, WT A. baumannii ATCC17978) [µg/mL]",clearance of A. baumannii infection within zebrafish embryos [5],"bacterial burden in urine, bladder, kidney (Escherichia coli C175-94)"
,,,,,N=C(N)NCCC[C@H](NC(=O)[C@H]1NC(=O)[C@H](CO)NC(=O)[C@H]2NC(=O)[C@H](CCC(N)=O)NC(=O)[C@@H](N)Cc3c[nH]c4c(cccc34)O[C@@H]2c2c[nH]c3cc(ccc23)[C@@H]1CCCN)C(=O)N[C@@H](Cc1c[nH]c2ccccc12)C(=O)O [Darobactin D69],1,1,0.5,1,2,completely cleared,
0.5 to 1,16 to 32,2,> 64,1 to 2,"CNC(C)C1CCC(N)C(OC2C(N)CC(N)C(OC3OCC(C)(O)C(NC)C3O)C2O)O1 (stereo not drawn) [Gentamicin, gentamicin]",,,,,,,reduction of bacterial burden below stasis level in all tissues

# Source: paper PMC11650638, “In Vivo Activity Profiling of Biosynthetic Darobactin D22 against Critical Gram-Negative Pathogens” (ACS Infectious Diseases, 2024)
